Assay results as given in US20080299076A1, “Compunds and compositions that cause non-apoptotic cell death and uses thereof” (priority 2006, published 2008).

Tests used:
[1] = tested on: Calu-1 cells; assay: Sensitivity of Calu-1 lung carcinoma cells to erastin; type: cell-based; conditions: Homo sapiens; Calu-1 lung carcinoma cells with activating KRAS mutation
Procedure: Erastin was discovered, e.g., in a screen for oncogenic-HRAS-selective lethal compounds. KRAS is more frequently mutated in human cancers than HRAS. Thus, whether erastin is selectively lethal to tumor cells harboring oncogenic KRAS was tested. Calu-1 is a lung carcinoma cell line (Calu-1) with an activating mutation in KRAS. In certain embodiments, Calu-1 cells were sensitive to erastin (IC50=5 μM). Two different lentiviral constructs were used to reduce expression of mutant KRAS.
(Left panel) Calu-1 cells that had been infected with lentiviruses expressing shRNAs targeting GFP (as a control) or KRAS (targeting 19 nucleotides starting at nucleotide 269 or 509) were seeded in 6-well plates, treated with erastin and viability measured using Trypan Blue exclusion on a Beckman Vi-Cell. Error bars represent one SD. (Right panel) Western blot showing KRAS knockdown in Calu-1 cells. Top band=actin, Bottom band=KRAS. Calu-1 cells were infected with nothing (left lane), or lentiviruses containing shRNA constructs targeting GFP or KRAS. For KRAS, the shRNA was designed to match 19 nucleotides starting at the indicated nt.

[2] = tested on: BJ-TERT/LT/ST/RAS^V12 cells; assay: Alamar Blue viability assay; type: cell-based, human
Procedure: (a) Calu-1 lung carcinoma cells harboring oncogenic KRAS were infected with lentivirus containing shRNAs targeting KRAS or GFP. Sequences of shRNAs are indicated by starting nucleotide (nt) in the KRAS mRNA coding sequence. Cells were treated with erastin and viability measured by Trypan Blue exclusion. (b) Knockdown of KRAS was confirmed by western blot. (c,d) A673 cells harboring oncogenic BRAF were infected with lentiviral shRNAs targeting BRAF exon 5 (c) or the 5′ UTR (d), luciferase (LUC) (c) or GFP (d). Cells were treated with erastin and viability measured using Alamar Blue (c) and Trypan Blue (d). (e) Knockdown of BRAF was confirmed by western blot. […] BJ-TERT/LT/ST/RAS^V12 cells were treated with erastin alone or in with a MEK inhibitor U0126 (20 μM), MEK inhibitor I (10 μM) or MEK 1/2 inhibitor (50 μM). After 48 h, viability was determined using Trypan Blue. (g) Structures of certain erastin and related analogs. (h) and (i) Dose-response curves were measured for erastin A3 and erastin B2 in BJ-TERT/LT/ST/RAS^V12 cells (black squares) or BJ-TERT cells (grey circles). (j) Calu-1 lung carcinoma cells harboring oncogenic KRAS were infected with lentivirus containing shRNAs targeting KRAS or GFP. Sequences of shRNAs are indicated by starting nucleotide (nt) in the KRAS mRNA coding sequence. Cells were treated with erastin and viability (y-axis) measured by Trypan Blue exclusion. Cells were treated with erastin for 24 hours, and percent inhibition of viability (y-axis) measured using Alamar Blue (k) and Trypan Blue (l). (m) Structures of erastin and related analogs. (n) Dose-response curves were measured for erastin A6, erastin B2, erastin A8 and erastin A9 in BJ-TERT/LT/ST/RAS^V12 cells (squares) or BJ-TERT cells (circles) using Alamar Blue.
Alamar Blue metabolism: 10% Alamar Blue was added to assay plates, which were then incubated for an additional 16 hours. Red fluorescence, resulting from reduction of Alamar Blue, was detected on a Victor3 platereader (ex: 530, em: 590).
Table 2. Activity of RAS-selective lethal compound erastin in tumor cell lines. IC50 values (ng/mL) are shown using the Alamar Blue viability assay. BJ engineered tumor cells express TERT, LT, ST, and oncogenic RAS. Isogenic RAS^V12 lacking cells are identical but lack HRAS^V12. BJ-DRD cells are derived from BJ cells and contain TERT, oncogenic RAS, a truncated from of p53 (p53DD) that disrupts the tetramerization of endogenous p53, a CDK4(R24C) mutant resistant to inhibition by p16INK4A and p151NK4B (the major negative regulators of CDK4) and cyclin D1. These latter protein substitute for LT. HCT-116, A549, Calu-1, and MIA PaCa-2 are tumor cells derived from cancers (colon, lung, lung and pancreatic, respectively) known to have activating mutations in RAS.

[3] = tested on: BJEH; assay: Response of tumor cell lines to erastin (dose-response); type: cell-based, human
Procedure: (§1) Given that oncogenic RAS activates at least four downstream pathways, analysis was performed to identify which downstream effects were necessary for erastin sensitivity. In certain embodiments, the invention provides that erastin inhibits growth and kills genuine tumor cells with RAS mutations. In other embodiments, the invention provides measures of the dose-response of 29 tumor cell lines to erastin, wherein there is at least 50% inhibition of viability in 18 of the cell lines (Table 4). Numerous sarcoma-derived tumor cell lines were sensitive to erastin, consistent with the fact that erastin was discovered in an engineered tumor cell line created from human fibroblasts.

[4] = tested on: A673; assay: as above; type: cell-based, human
Procedure: as §1

[5] = tested on: HT1080; assay: as above; type: cell-based, human
Procedure: as §1

[6] = tested on: BJELR; assay: as above; type: cell-based, human
Procedure: as §1

**Q.** CCOc1ccccc1-n1c(C(C)N2CCN(C(=O)COc3ccc(Cl)cc3)CC2)nc2ccccc2c1=O (stereo not drawn) [erastin, 2-(1-{4-[2-(4-Chloro-phenoxy)-acetyl]-piperazin-1-yl}-ethyl)-3-(2-ethoxy-phenyl)-3H-quinazolin-4-one] was tested. Which IC50 [1] did it give?
**A.** 5 µM

**Q.** What about the RAS-selective lethality ([2]; HRAS^V12-expressing versus HRAS^V12-deficient cells) of the same compound?
**A.** at least 16 fold

**Q.** And the RAS selectivity ([2]; IC50 in BJ-TERT/LT/ST versus BJ-TERT/LT/ST/RAS^V12)?
**A.** >16

**Q.** And the “Erastin Sensitivity (maximum percent killing, as fraction)” value ([3]; BJ-TERT)?
**A.** 0.22

**Q.** What about the Max % killing ([3]; BJEH, foreskin fibroblast w/TERT) of the same compound?
**A.** 22%

**Q.** What about the EC50 ([3]; Homo sapiens, BJeH) of the same compound?
**A.** 10 µM

**Q.** And the “Erastin Sensitivity (maximum percent killing, as fraction)” value ([4]; A673)?
**A.** 0.54

**Q.** And the Max % killing ([4]; A673, Ewing sarcoma)?
**A.** 54%

**Q.** What about the EC50 ([4]; Homo sapiens, A673) of the same compound?
**A.** 30 µM

**Q.** And the “Erastin Sensitivity (maximum percent killing, as fraction)” value ([5]; HT 1080)?
**A.** 0.98

**Q.** And the Max % killing ([5]; HT1080, Fibrosarcoma)?
**A.** 98%

**Q.** What about the EC50 ([5]; Homo sapiens, HT-1080, HT1080) of the same compound?
**A.** 2 µM

**Q.** What about the “Erastin Sensitivity (maximum percent killing, as fraction)” value ([6]; BJ-TERT/LT/ST/RAS^V12) of the same compound?
**A.** 1.00

**Q.** What about the Max % killing ([6]; BJELR, foreskin fibroblasts w/TERT, LT, ST, RAS) of the same compound?
**A.** 100%

**Q.** What about the EC50 ([6]; Homo sapiens, BJeLR) of the same compound?
**A.** 6 µM
